In brackets after ≈: the same amount, converted by molar mass. Non-standard residues stand in square brackets, D forms with d. Residues, ends and D or L forms follow the SMILES beside them. ξ: configuration not given here. *: point of attachment. ξPhe(4-N(CH2CH2Cl)2) = NC(Cc1ccc(N(CCCl)CCCl)cc1)C(=O)O; X1 = O=P(O)(O)C(CN*)P(=O)(O)O
Tests used:
MCF7 [1] = test: Cytotoxicity against human MCF7 cells assessed as cell growth inhibition incubated for 48 hrs by AlamarBlue assay; type: functional, cell-based; settings: MCF7, 48 h
[2] = Cytotoxicity against CHO cells assessed as cell growth inhibition incubated for 48 hrs by AlamarBlue assay; type: toxicity, cell-based, Cricetulus griseus; settings: Chinese hamster
[3] = Biodistribution in mouse CCRF S-180 tumor cells xenografted in ICR mouse measured after 120 mins; type: ADME, organism-based; settings: read-out: Drug uptake
[4] = Retention time of the compound by HPLC analysis; type: physicochemical
K562 = test: Cytotoxicity against human K562 cells assessed as cell growth inhibition incubated for 24 hrs by MTT assay; type: functional, cell-based; settings: K562, 24 h
SK-OV-3 = test: Cytotoxicity against human SK-OV-3 cells assessed as inhibition of cell proliferation incubated for 24 hrs by MTT assay; type: functional, cell-based; settings: SK-OV-3, 24 h
[5] = Biodistribution in mouse CCRF S-180 tumor cells xenografted in ICR mouse measured after 240 mins; type: ADME, organism-based; settings: read-out: Drug uptake
HT-29 = test: Cytotoxicity against human HT-29 cells assessed as cell growth inhibition measured after 24 hrs by MTT assay; type: functional, cell-based; settings: HT-29, 24 h
H-EMC-SS = test: Cytotoxicity against human H-EMC-SS cells assessed as cell growth inhibition incubated for 72 hrs by resazurin reduction method; type: functional, cell-based
SAOS-2 [6] = test: Cytotoxicity against human SAOS-2 cells assessed as cell growth inhibition incubated for 72 hrs by resazurin reduction method; type: functional, cell-based; settings: SAOS-2, 72 h
MCF7 [7] = test: Cytotoxicity against human MCF7 cells assessed as cell growth inhibition incubated for 24 hrs by MTT assay; type: functional, cell-based; settings: MCF7, 24 h
MDA-MB-231 [8] = test: Inhibition of DNA synthesis in human MDA-MB-231 cells at 15 uM incubated upto 72 hrs by [3H]thymidine incorporation assay relative to control; type: functional
MDA-MB-231 [9] = test: Cytotoxicity against human MDA-MB-231 cells assessed as reduction in cell viability at 15 uM incubated for 24 hrs by MTT assay relative to control; type: functional
MC3T3-E1 = test: Cytotoxicity against mouse MC3T3-E1 cells assessed as cell growth inhibition; type: functional, cell-based
SAOS-2 [10] = test: Cytotoxicity against human SAOS-2 cells assessed as cell growth inhibition; type: functional, cell-based
[11] = Prodrug conversion assessed as drug excretion measured after 6 days by HPLC analysis; type: ADME; settings: 144 h; time 6 day
U2OS = test: Cytotoxicity against human U2OS cells assessed as cell growth inhibition; type: functional, cell-based
[12] = target: 72 kDa type IV collagenase (Homo sapiens, UniProt P08253); test: Prodrug conversion assessed as MMP-2 (unknown origin)-mediated drug release by measuring half life by HPLC analysis; type: ADME
Lymphoma cell line [13] = test: Potency index, ratio of Melphalan IC50 to test compound IC50 for cytotoxicity against patient-derived human lymphoma cells assessed as cell growth inhibition incubated for 72 hrs by FMCA assay; type: functional
Lymphoma cell line [14] = test: Cytotoxicity against patient-derived human lymphoma cells assessed as cell growth inhibition incubated for 72 hrs by FMCA assay; type: functional, cell-based
[15] = Plasma protein binding in human by ultrafiltration method; type: ADME; settings: read-out: PPB (converted)
[16] = Plasma protein binding in human; type: ADME
[17] = Plasma protein binding in human assessed as unbound fraction; type: ADME

Sequence of 72 kDa type IV collagenase (P08253 whole entry): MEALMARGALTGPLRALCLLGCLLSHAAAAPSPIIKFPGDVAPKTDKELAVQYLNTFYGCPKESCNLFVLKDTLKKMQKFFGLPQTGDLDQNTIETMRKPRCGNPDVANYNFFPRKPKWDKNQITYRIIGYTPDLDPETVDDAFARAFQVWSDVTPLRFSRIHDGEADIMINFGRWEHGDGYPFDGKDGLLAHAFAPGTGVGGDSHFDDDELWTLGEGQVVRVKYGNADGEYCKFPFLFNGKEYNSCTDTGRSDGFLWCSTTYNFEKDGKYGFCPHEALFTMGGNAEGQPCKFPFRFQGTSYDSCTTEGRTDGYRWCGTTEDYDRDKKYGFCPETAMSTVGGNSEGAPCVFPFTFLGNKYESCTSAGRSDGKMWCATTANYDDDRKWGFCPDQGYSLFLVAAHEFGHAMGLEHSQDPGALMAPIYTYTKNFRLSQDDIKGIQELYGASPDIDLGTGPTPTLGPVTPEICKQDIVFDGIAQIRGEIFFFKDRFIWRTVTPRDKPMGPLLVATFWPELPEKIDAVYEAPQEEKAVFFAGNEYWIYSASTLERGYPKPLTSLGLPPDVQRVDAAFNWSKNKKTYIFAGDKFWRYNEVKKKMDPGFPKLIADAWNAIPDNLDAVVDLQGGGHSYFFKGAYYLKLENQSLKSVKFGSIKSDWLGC

Which IC50 (MCF7 [1]) does the source give for `C=C1C(=O)O[C@@H]2C3O[C@]3(C)CC/C=C(\C)CC[C@@H]12` (stereo partly drawn) here?
The IC50 was > 20 µM.

With `C/C1=C\CC[C@@]2(C)O[C@H]2[C@H]2OC(=O)C(CNc3ccn(C4OC(CO)[C@H](O)[C@@H]4O)c(=O)n3)[C@@H]2CC1` (stereo partly drawn) as the compound, how does the IC50 at 48 h [2] read?
Its IC50 at 48 h is 1.74 µM.

For `C/C1=C\CC[C@@]2(C)O[C@H]2[C@H]2OC(=O)C(CNC(Cc3ccc(N(CCCl)CCCl)cc3)C(=O)O)[C@@H]2CC1` (stereo partly drawn), which tissue uptake at 2 h [3] is on record?
Its tissue uptake at 2 h is 1.63 %ID/g.

And the Retention_time [4]?
Its Retention_time is 14.5 min.

For `CC1(C)CC(NC(=O)C(N)Cc2ccc(N(CCCl)CCCl)cc2)CC(C)(C)N1[O]` (stereo not drawn), which IC50 (K562) is on record?
The IC50 was 36.3 µM.

Which IC50 (SK-OV-3) does the source give for `NC1=NC2N=CC(CNc3ccc(C(=O)NCC(CCC(=O)NCC(=O)NCC(=O)NC(Cc4ccc(N(CCCl)CCCl)cc4)C(=O)O)C(=O)NCC(=O)NCC(=O)NC(Cc4ccccc4)C(=O)O)cc3)N=C2C(=O)N1` (stereo not drawn) here?
The IC50 was 4.1 µg/mL (≈ 3.66 µM).

With `CN(C)c1ccc(/C=N\Nc2ccc(CN[C@@H](Cc3ccc(N(CCCl)CCCl)cc3)C(=O)O)cc2)cc1` as the compound, how does the tissue uptake at 4 h [5] read?
The tissue uptake at 4 h was 0.98 %ID/g.

Which IC50 (HT-29) does the source give for `CCOC(=O)CNC(=O)[C@H](Cc1ccc(N(CCCl)CCCl)cc1)NC(=O)[C@@H](N)[C@@H](C)CC` here?
Its IC50 is 40 µM.

For `C[N+](C)(C)CCCNC(=O)[C@@H](N)Cc1ccc(N(CCCl)CCCl)cc1`, which IC50 (H-EMC-SS) is on record?
Its IC50 is 14 µM.

What about the IC50 (SAOS-2 [6]) of the same compound?
The IC50 was 37.5 µM.

Which tissue uptake at 2 h [3] does the source give for `O=C(O)CN(CCN(CC(=O)O)CC(=O)O)CCN(CC(=O)O)CC(=O)N[C@@H](Cc1ccc(N(CCCl)CCCl)cc1)C(=O)O` here?
Its tissue uptake at 2 h is 1.03 %ID/g.

And the Retention_time [4]?
Its Retention_time is 10.72 min.

Which IC50 (MCF7 [7]) does the source give for `COC(=O)C(Cc1ccc(N(CCCl)CCCl)cc1)NC(=O)c1ccc(-c2ccc(C(=N)NC(C)C)cc2)o1` (stereo not drawn) here?
The IC50 was 23 µM.

Which results are given for `O=C(O)C(Cc1ccc(N(CCCl)CCCl)cc1)NCC(=O)N1CCCC1C(=O)O` (stereo not drawn)?
inhibition at 15 µM (MDA-MB-231 [8]): 30%; inhibition at 15 µM (MDA-MB-231 [9]): 55%

What does the source list for `CC(C)C[C@H](NC(=O)CNC(=O)[C@H](CC(C)C)NC(=O)[C@@H]1CCCN1C(=O)C(N)Cc1ccc(N(CCCl)CCCl)cc1)C(=O)N[C@@H](C)C(=O)NCC(=O)NCC(P(=O)(O)O)P(=O)(O)O` (stereo partly drawn) (H-[ξPhe(4-N(CH2CH2Cl)2)]PLGLAG-X1)?
IC50 (MC3T3-E1): 0.79 µM; IC50 (SAOS-2 [10]): 0.79 µM; Drug excretion [11]: 75%; IC50 (U2OS): 0.79 µM; t1/2 [12]: 1.25 h

With `Nc1ccn([C@@H]2O[C@H](CO)[C@@H](O)[C@@H]2O)c(=O)n1` [CYTARABINE] as the compound, how does the IC50 (MCF7 [1]) read?
The IC50 was > 20 µM.

Which “Ratio IC50” value (Lymphoma cell line [13]) does the source give for `CCOC(=O)[C@H](Cc1ccc(F)cc1)NC(=O)[C@@H](N)Cc1ccc(N(CCCl)CCCl)cc1` [MELPHALAN FLUFENAMIDE] here?
Its value is 49.

And the IC50 (Lymphoma cell line [14])?
The IC50 was 0.011 µM.

What does the source list for `N[C@@H](Cc1ccc(N(CCCl)CCCl)cc1)C(=O)O` [MELPHALAN]?
IC50 (MCF7 [7]): 77 µM; IC50 (MC3T3-E1): 0.68 µM; IC50 (SAOS-2 [10]): 0.68 µM; fraction unbound [15]: 0.31; IC50 (K562): 65.7 µM; PPB [16]: 40 µg/mL; inhibition at 15 µM (MDA-MB-231 [9]): 40%; IC50 (U2OS): 0.68 µM; IC50 (MCF7 [1]): > 20 µM; Cp(f) [17]: 2500 ng/mL

Reference: ChEMBL document CHEMBL5214922, “Melphalan: Recent insights on synthetic, analytical and medicinal aspects” (Eur J Med Chem, 2022)
